Assay results: the supplement of paper PMC4862054

What was measured:
Conditions in all cases: incubation time: 72 h
HCC1937 [1] = assay: drug sensitivity score (DSS), CellTox Green (DSS (AUC-based score)); higher = stronger drug effect (viability inhibition or cytotoxicity); extreme values may be limits of the assay
Summary of the method: (§1)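 The area under the fitted dose-response curve was used to calculate the drug sensitivity score. Cells from breast cancer lines were incubated for 72 h in 384-well plates with compound at 5 concentrations spaced 10-fold over a 10,000-fold range specific to each compound. Plates were read for CellTox Green and then CellTiter-Glo, and normalised to 0.1 % DMSO and a positive kill control.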

Hs578T [2] = assay: as above
Summary of the method: as §1

CAL-85-1 [3] = assay: as above
Summary of the method: as §1

MDA-MB-436 = assay: as above
Summary of the method: as §1

DU-4475 [4] = assay: as above
Summary of the method: as §1

BT-474 = assay: as above
Summary of the method: as §1

MDA-MB-231 [5] = assay: as above
Summary of the method: as §1

CAL-51 = assay: as above
Summary of the method: as §1

BT-549 = assay: as above
Summary of the method: as §1

MCF-10A [6] = assay: as above
Summary of the method: as §1

MDA-MB-468 [7] = assay: as above
Summary of the method: as §1

MFM-223 = assay: as above
Summary of the method: as §1

MDA-MB-453 [8] = assay: as above
Summary of the method: as §1

HCC1599 = assay: as above
Summary of the method: as §1

HCC1143 [9] = assay: as above
Summary of the method: as §1

HCC1937 [10] = assay: drug sensitivity score (DSS), CellTiter-Glo (DSS (AUC-based score)); higher = stronger drug effect (viability inhibition or cytotoxicity); extreme values may be limits of the assay
Summary of the method: as §1

Hs578T [11] = assay: as above
Summary of the method: as §1

CAL-85-1 [12] = assay: as above
Summary of the method: as §1

DU-4475 [13] = assay: as above
Summary of the method: as §1

SK-BR-3 = assay: as above
Summary of the method: as §1

MDA-MB-231 [14] = assay: as above
Summary of the method: as §1

MCF-10A [15] = assay: as above
Summary of the method: as §1

MDA-MB-468 [16] = assay: as above
Summary of the method: as §1

MDA-MB-453 [17] = assay: as above
Summary of the method: as §1

CAL-120 = assay: as above
Summary of the method: as §1

HCC1143 [18] = assay: as above
Summary of the method: as §1

HDQ-P1 = assay: drug sensitivity score (DSS), CellTox Green (DSS (AUC-based score)); higher = stronger drug effect (viability inhibition or cytotoxicity); extreme values may be limits of the assay
Summary of the method: as §1

Structure (SMILES)	drug sensitivity score (HCC1937 [1])	drug sensitivity score (Hs578T [2])	drug sensitivity score (CAL-85-1 [3])	drug sensitivity score (MDA-MB-436)	drug sensitivity score (DU-4475 [4])	drug sensitivity score (BT-474)	drug sensitivity score (MDA-MB-231 [5])	drug sensitivity score (CAL-51)	drug sensitivity score (BT-549)	drug sensitivity score (MCF-10A [6])	drug sensitivity score (MDA-MB-468 [7])	drug sensitivity score (MFM-223)	drug sensitivity score (MDA-MB-453 [8])	drug sensitivity score (HCC1599)	drug sensitivity score (HCC1143 [9])	drug sensitivity score (HCC1937 [10])	drug sensitivity score (Hs578T [11])	drug sensitivity score (CAL-85-1 [12])	drug sensitivity score (DU-4475 [13])	drug sensitivity score (SK-BR-3)	drug sensitivity score (MDA-MB-231 [14])	drug sensitivity score (MCF-10A [15])	drug sensitivity score (MDA-MB-468 [16])	drug sensitivity score (MDA-MB-453 [17])	drug sensitivity score (CAL-120)	drug sensitivity score (HCC1143 [18])	drug sensitivity score (HDQ-P1)
Cc1ccc(C(=O)N(CCCN)[C@@H](c2oc3cc(Cl)ccc3c(=O)c2Cc2ccccc2)C(C)C)cc1	0	2.03	0	0	0	0	0	0	0	0	0	0	0	0	0	0	0	0	0	0	0	0	0	0	0	0	–
O=C(O)c1ccc(-c2c[nH]c3ncc(-c4ccccc4)cc23)cc1C1CCCC1	–	0	0	0	0	0	0	0	0	0	0	1.51	0	0	0	0	0.128	0	0	2.12	0	0	0	0	0	0	0
NC(=O)Nc1cc(-c2cccc(F)c2)sc1C(=O)N[C@H]1CCCNC1 [AZD7762]	0	17.4	12.9	0	0	0	0.946	3.37	0	0	6.89	0	0	0	0	2.78	3.86	9.45	0	3.78	5.67	3.48	1.93	5.03	2.9	4.03	0
Cn1c(CCCC(=O)O)nc2cc(N(CCCl)CCCl)ccc21 [Bendamustine]	0	–	0	0	0	0	4.63	0	0	0	4.02	0	0	0	0	0	0	0	0	0	0	0	0	0	0	0	0
C=C(c1ccc(C(=O)O)cc1)c1cc2c(cc1C)C(C)(C)CCC2(C)C [Bexarotene]	0	–	0	0	0	0	0	0	0	0	0	0	0	0	0	0	0	0	0	2.44	0	0	0	0	0	0	0
N.N.[Cl][Pt][Cl] [Cisplatin]	0	0	0	0	0	0	0	0	0	0	–	0	0	0	0	0	0	0	0	0	0	0	0	0	0	0	0
C[C@@H](Oc1cc(-c2cnn(C3CCNCC3)c2)cnc1N)c1c(Cl)ccc(F)c1Cl [Crizotinib]	0	0	0	–	0	0	0	0	0	0	0	0	0	0	0	0	0	0	0	0	0	0	0.0242	0	0	0	0.784
C#Cc1cccc(Nc2ncnc3cc(OCCOC)c(OCCOC)cc23)c1 [Erlotinib]	0	0	6.41	0	0	0.507	–	2.1	0	0	0	0	0	0	0	0	0	7.99	0	2.74	0	16.3	0	0	0.577	0	0
C[C@]12CC[C@@H]3c4ccc(O)cc4C[C@@H](CCCCCCCCC[S+]([O-])CCCC(F)(F)C(F)(F)F)[C@H]3[C@@H]1CC[C@@H]2O (some centres undefined) [Fulvestrant]	0	0	0	0	0	0	0	0	0	0	–	0	0	0	0	0	0	0	0	0	0	0	0	0	0	0	0
O=P1(NCCCl)OCCCN1CCCl (centres undefined) [Ifosfamide]	–	0	0	–	0	0	1.11	0	0.736	0	0	0	0	0	0	0	0	0	0	0	0	0	0	0	0	0	0
CC(C)Cn1cnc2c(N)nc3ccccc3c21 [Imiquimod]	0	–	1.01	0	0	0	0	0	0.506	0	3.54	0	0	0	0	0	0	0	0	0	0	0	0	0	0	0	1.63
CC1(C)NC(=O)N(c2ccc([N+](=O)[O-])c(C(F)(F)F)c2)C1=O [Nilutamide]	0	0	0	0	0	0	0	0	0	0	0	0	0	0	–	0	0	0	0	0	0	0	0	0	0	0	0
Cn1c(Nc2ccc(C(F)(F)F)cc2)nc2cc(Oc3ccnc(-c4ncc(C(F)(F)F)[nH]4)c3)ccc21 [RAF265]	0	0	4.33	0	0	0	0	0	9.17	–	0	2.58	0	0	0	1.88	2.49	1.63	1.18	0	0	0	4.79	0	3.6	0	0
O=C1CCC(N2C(=O)c3ccccc3C2=O)C(=O)N1 (centres undefined) [Thalidomide]	0	0	0	4.46	0	0	0	0	0	0	0	0	0	0	0	0	0	0	0	0	0	0	0	0	0	0	–
